Reference: patent publication US20100311726A1, “REDUCTION OF BETA-AMYLOID LEVELS BY TREATMENT WITH THE SMALL MOLECULE DIFFERENTIATION-INDUCING FACTOR” (priority 2007, published 2010)

Legend:
naïve CHO cells = test: Flow cytometry cell cycle distribution, naive CHO; assay type: cell-based, Chinese Hamster; details: 25 μM overnight
Protocol: (§1) Naïve and CHO-7W cells were collected by trypsin/EDTA treatment and counted using a haemocytometer. The cells (1×10^5) were deposited into 10 cm tissue culture dishes containing fresh media and grown for 24 hours prior to DIF-1 treatment (25 μM). Cells were grown in the presence of DIF-1 for approximately 20 hours. Cells harvested by the trypsin/EDTA treatment were suspended in hypotonic fluorochrome solution containing 50 ug/ml of propidium iodide, 0.1% sodium citrate, and 0.1% Triton X-100. Cells (5×10^4) for each sample were analyzed for fluorescence using the Massachusetts General Hospital cytology core. Cell cycle distribution was compared between vehicle and DIF-1 treated nave CHO cells, and CHO-7W cells. The percentage of cells in G0/G1, S-phase and G2/M represents the mean cell number±the standard deviation from at least 3 separate experiments.
To determine where in the cell cycle DIF-1 acts, we assessed the cell cycle distribution of naïve CHO cells using flow cytometry (FIG. 1B). CHO cells were incubated with DIF-1 (25 μM) for the indicated periods and then harvested by the trypsin/EDTA treatment, fixed and stained with propidium iodide (PI) and fluorescence of nuclei was measured. Histogram peaks are labeled by phases (G0/G1, S and G2/M). The percentages of cell number in the cell cycle phases are shown as means+/−S.E. of three independent experiments performed in duplicate. […]

CHO-7W cells = test: Flow cytometry cell cycle distribution, CHO-7W; assay type: cell-based, Chinese Hamster; details: 25 μM
Protocol: as §1
CHO/APP cells were incubated with DIF-1 (25 μM) for the indicated periods and then harvested, fixed and stained with propidium iodide (PI) and fluorescence of nuclei was measured. Histogram peaks are labeled by phases. The percentages of cell number in the cell cycle phases are shown as means+/−S.E. of three independent experiments performed in duplicate. The effects of DIF-1 on CHO-7W cell growth is also a result of G0/G1 cell cycle block (50.1%±1.1) as measured by flow cytometry (FIG. 2B).

human APLP2 = test: APLP2 CTF levels in CHO cells expressing APLP2; assay type: cell-based; details: co-treatment of DIF-1 and DAPT
From the text: To ascertain if DIF-1 indiscriminately perturbs the metabolism of type I transmembrane proteins we investigated the processing of other γ-secretase substrates.

CHO-CAB cells = test: Confocal fluorescence microscopy of CHO-CAB cells; assay type: cell-based, Chinese Hamster; details: 30 μM overnight
Protocol: CHO-CAB cells were grown on multi-well chamber slides and treated overnight with 30 μM DIF-1. The cells were fixed with 4% paraformaldehyde/PBS, permeabilized with 0.1% Triton X-100/PBS for 10 min and blocked with 5% goat serum/PBS. APP (rabbit C-terminal 8717), PDI (ER marker), GM130 (golgi marker), and ubiquitin were detected using their corresponding antibodies and Alexa Fluor-conjugated secondary antibodies. Nuclei were stained with Hoechst 33342 (Molecular Probes/Invitrogen). Confocal fluorescence images were obtained using an Olympus DSU/IX70 spinning disc confocal microscope and processed using IPLab software (Scanalytics/BD Biosciences).
Next, the effect of DIF-1 on APP trafficking and subcellular distribution was assessed. Cells were fixed with 4% paraformaldehyde/PBS, permeabilized with 0.1% Triton X-100/PBS and blocked with 5% goat serum/PBS. Confocal microscopy of CHO-CAB cells stained with APP antibodies together with the ER marker PDI or golgi marker GM130 confirmed that APP primarily co-localized with GM130 and PDI (FIG. 14A). […] ER structure upon DIF-1 treatment became highly vacuolated but to a varying degree within populations of cells.

SMILES: CCCCCC(=O)c1c(O)c(Cl)c(OC)c(Cl)c1O [DIF-1, 1-[3,5-dichloro-2,6-dihydroxy-4-methoxyphenyl]-1-hexanone]
- percentage of cells in G0/G1 (naïve CHO cells): 52.6%±0.9
- G0/G1 cell cycle block (percentage of cells) (CHO-7W cells): 50.1%±1.1
- APLP2 CTF levels (human APLP2): decrease in APLP2 CTF levels
- ER structure (PDI marker) (CHO-CAB cells): disruption in the structure of the ER
- subcellular distribution of APP (CHO-CAB cells): enriched around the nuclear periphery
